The source of these data is patent publication US7915297B2, “Isoxazole derivatives and use thereof” (SK Holdings Co., Ltd., priority 2005, dated 2011).

For assay [1], the system named is Wnt/β-catenin signaling (β-catenin activity) in HEK293 cell line. Briefly: Cell-based Wnt agonist screening, TCF luciferase reporter, HEK293 (TCF-FL). The note with it: Homo sapiens, HEK293, 24 h, % of LiCl (20 mM), 24 h, read-out: Max. Activity (%); for Emax at 30 µM: Conc. 30 μM; for Emax at 60 µM: Conc. 60 μM; for Emax at 120 µM: Conc. 120 μM. The arrangement: species or system human. The text has this: (§1) In order to measure the in vitro activity of compounds of the present invention, two human cancer cell lines, HEK293 and SW480, which have intact Wnt signaling and show APC gene mutation in the Wnt signaling pathway, respectively, were used.
(§2) For evaluating the activity of wnt/β-catenin signaling in the cancer cell lines, gene as illustrated in FIG. 1 having β-catenin-binding sites of the Tcf/Lef transcriptional control protein (5 sites of TCF, 5X TCF) and having a fire fly luficerase as a marker protein ascertainable the activity of 5X TCF was introduced into the cells. Treatment with G418 led monoclones of the cell lines, in which the genes were permanently expressed, so as to construct a cell-based Wnt agonist screening system. […] For comparison with the activity of the isoxazole derivatives as Wnt agonists, lithium chloride (LiCl), acting as a positive control for the cell-based Wnt agonist screening system, was used to determine the expression level of the luciferase, and the results are shown in FIG. 3.
(§3) The cell lines, in which a cell-based Wnt agonist screening system was constructed, were cultured in RPMI 1640 media supplemented with penicillin-streptomycin (100 Units/mL) and heat-inactivated 5% fetal bovine serum under standard culture conditions (5% CO2, 37° C., 100% relative humidity). […] The suspension was diluted with the same medium to adjust the cell count to 8,000˜15,000 cells per well and was moved then in a 96-well microtiter plate. After being incubated for 24 hrs, the cells were treated with various concentrations of the isoxazole derivatives synthesized in Preparation Examples. Incubation for an additional 24 hours was followed by the quantitative analysis of luciferase activity using a Luciferase Assay kit (Promega, U.S.A.) according to the protocol described in the manual provided by the manufacturer. Data on the activities of the isoxazole derivatives thus synthesized are given in Tables 34 to 43, and are expressed as percentages relative to the activity of the positive control LiCl (20 mM), a well-known agonist of Wnt signaling.
For orientation: In a reporter assay the amount or activity of a reporter protein is the signal.

In assay [2] the test system is Wnt/β-catenin signaling (β-catenin activity) in SW480 cell line. In words: Cell-based Wnt agonist screening, TCF luciferase reporter, SW480 (TCF-FL). Set-up: species or system human. The settings on record: Homo sapiens, % of LiCl (20 mM), 24 h, read-out: Max. Activity (%); for Emax at 60 µM: Con. 60 μM; for Emax at 30 µM: Con. 30 μM; for Emax at 120 µM: Con. 120 μM.
Excerpt: as §1, §2, §3

The structures appear in SMILES notation. Where only a bound is given, the exact number is not on record here.

For the molecule `O=C(NCCCn1ccnc1)c1cc(-c2ccc(O)cc2)on1` [Derivative (107), 5-(4-hydroxy-phenyl)-isoxazole-3-carboxylic acid (3-imidazol-1-yl-propyl)-amide], in assay [1], the Emax at 30 µM stood at 28% and the Emax at 60 µM is 584%. For the same molecule, in assay [2], the Emax at 60 µM was found to be 584%.

In the case of `O=C(NCCCn1ncnn1)c1cc(-c2ccco2)on1` [Derivative (53), 5-furan-2-yl-isoxazole-3-carboxylic acid (3-tetrazol-2-yl-propyl)-amide], the Emax at 30 µM in assay [1] and in assay [2] was below 20% each time.

Consider `O=C(NCCc1ccccc1)c1cc(-c2ccco2)on1` [Derivative (5), 5-furan-2-yl-isoxazole-3-carboxylic acid phenethyl-amide], for which the Emax at 30 µM was below 20% in assay [1] and 148% in assay [2].

As for `O=C(NCCc1ccccc1F)c1cc(-c2ccco2)on1` [Derivative (16), 5-furan-2-yl-isoxazole-3-carboxylic acid [2-(2-fluoro-phenyl)-ethyl]-amide], the values for the Emax at 30 µM in assay [1] and in assay [2] were below 20% and 327%, respectively.

As for `Cc1cncn1CCCNC(=O)c1cc(-c2ccco2)on1` [Derivative (57), 5-furan-2-yl-isoxazole-3-carboxylic acid [3-(5-methyl-imidazol-1-yl)-propyl]amide], the Emax at 30 µM in assay [1] and in assay [2] was below 20% in each case.

On to `O=C(NCc1ccccc1)c1cc(-c2ccco2)on1` [Derivative (4), 5-furan-2-yl-isoxazole-3-carboxylic acid benzylamide], for which the Emax at 30 µM in assay [1] and in assay [2] was below 20% throughout.

As to `Cc1ccc(-c2cc(C(=O)NCCCn3ccnc3)no2)cc1` [Derivative (80), 5-p-tolyl-isoxazole-3-carboxylic acid (3-imidazol-1-yl-propyl)-amide], the Emax at 120 µM in assay [1] and in assay [2] was 58% throughout.

For the molecule `Cc1cccc(-c2cc(C(=O)NCCCn3ccnc3)no2)c1` [Derivative (79), 5-m-tolyl-isoxazole-3-carboxylic acid (3-imidazol-1-yl-propyl)-amide], the Emax at 10 µM in assay [1] (Conc. 10 μM) and in assay [2] (Con. 10 μM) was 48% throughout.

Regarding `O=C(NCCCn1ccnc1)c1cc(-c2cccc(O)c2)on1` [Derivative (106), 5-(3-hydroxy-phenyl)-isoxazole-3-carboxylic acid (3-imidazol-1-yl-propyl)-amide], the Emax at 7.5 µM in assay [1] (Conc. 7.5 μM) turned out to be 29%. Further, the Emax at 30 µM in assay [1] and in assay [2] was 277% each time.

Regarding `O=C(NCCn1ccnn1)c1cc(-c2ccc(F)cc2)on1` [Derivative (90), 5-(4-fluoro-phenyl)-isoxazole-3-carboxylic acid (2-[1,2,3]triazol-1-yl-ethyl)-amide], the Emax at 30 µM in assay [1] and in assay [2] was 92% throughout.

On to `COc1cccc(CCNC(=O)c2cc(-c3ccco3)on2)c1` [Derivative (20), 5-furan-2-yl-isoxazole-3-carboxylic acid [2-(3-methoxy-phenyl)-ethyl]-amide], for which, in assay [1], the Emax at 30 µM is below 20%. The Emax at 60 µM in assay [2] came out at 528%.

`O=C(O)c1cn(CCCNC(=O)c2cc(-c3ccco3)on2)cn1` [Derivative (59), 1-{3-[(5-furan-2-yl-isoxazole-3-carbonyl)-amino]-propyl}-1H-imidazole-4-carboxylic acid]: in assay [1], the Emax at 30 µM was below 20%. Also, in assay [2], the Emax at 60 µM was 592%.

On to `O=C(Nc1ccccc1O)c1cc(-c2ccco2)on1` [Derivative (2), 5-furan-2-yl-isoxazole-3-carboxylic acid (2-hydroxy-phenyl)-amide], for which the Emax at 30 µM in assay [1] and in assay [2] was below 20% in each case.

For the molecule `O=C(NCc1ccncc1)c1cc(-c2ccco2)on1` [Derivative (9), 5-furan-2-yl-isoxazole-3-carboxylic acid (pyridin-4-ylmethyl)-amide], the Emax at 30 µM in assay [1] and in assay [2] was below 20% throughout.

Take `O=C(NCCCc1ccccc1)c1cc(-c2ccco2)on1` [Derivative (6), 5-furan-2-yl-isoxazole-3-carboxylic acid (3-phenyl-propyl)-amide]: the Emax at 30 µM in assay [1] was below 20%. Besides, the Emax at 60 µM in assay [2] was determined as 322%.

For `O=C(NCCn1ccnc1)c1cc(-c2ccco2)on1` [Derivative (33), 5-furan-2-yl-isoxazole-3-carboxylic acid (2-imidazol-1-yl-ethyl)-amide], the Emax at 15 µM in assay [1] (Conc. 15 μM) turned out to be 37%. Besides, the Emax at 120 µM in assay [2] turned out to be 580%.

Turning to `O=C(NCCc1cccnc1)c1cc(-c2ccco2)on1` [Derivative (11), 5-furan-2-yl-isoxazole-3-carboxylic acid (2-pyridin-3-yl-ethyl)-amide], the Emax at 30 µM in assay [1] is 61%. Also, in assay [2], the Emax at 60 µM turned out to be 625%.

For the molecule `O=C(NCCCn1ccnc1)c1cc(-c2cccnc2)on1` [Derivative (76), 5-pyridin-3-yl-isoxazole-3-carboxylic acid (3-imidazol-1-yl-propyl)-amide], the Emax at 30 µM in assay [1] and in assay [2] was below 20% each time.

As to `CCc1c(C(=O)NCCCn2ccnc2)noc1-c1ccco1` [Derivative (66), 4-ethyl-5-furan-2-yl-isoxazole-3-carboxylic acid (3-imidazol-1-yl-propyl)-amide], the Emax at 30 µM in assay [1] and in assay [2] was below 20% each time.

Take `O=C(O)c1ccc(CCNC(=O)c2cc(-c3ccco3)on2)cc1` [Derivative (32), 4-{2-[(5-furan-2-yl-isoxazole-3-carbonyl)-amino]-ethyl}-benzoic acid]: the Emax at 120 µM in assay [1] is 52%; in assay [2], 789%.

Take `O=C(NCCCCn1ccnc1)c1cc(-c2ccco2)on1` [Derivative (34), 5-furan-2-yl-isoxazole-3-carboxylic acid (4-imidazol-1-yl-butyl)-amide]: the Emax at 120 µM in assay [1] came to 44%; in assay [2], 120%.

For the molecule `COc1ccccc1-c1cc(C(=O)NCCCn2ccnc2)no1` [Derivative (99), 5-(2-methoxy-phenyl)-isoxazole-3-carboxylic acid (3-imidazol-1-yl-propyl)-amide], the Emax at 120 µM in assay [1] and in assay [2] was 37% throughout.

With `O=C(NCCCn1cnc(Br)c1)c1cc(-c2ccco2)on1` [Derivative (60), 5-furan-2-yl-isoxazole-3-carboxylic acid [3-(4-bromo-imidazol-1-yl)-propyl]-amide], the Emax at 30 µM in assay [1] is below 20%; in assay [2], 196%.

For `O=C(NCCc1ccccn1)c1cc(-c2ccccc2)on1` [Derivative (70), 5-phenyl-isoxazole-3-carboxylic acid (2-pyridin-2-yl-ethyl)-amide], the Emax at 60 µM in assay [1] was 51%. In addition, in assay [2], the Emax at 120 µM is 789%.

Turning to `O=C(NCCCn1ccnc1)c1cc(-c2cccc([N+](=O)[O-])c2)on1` [Derivative (113), 5-(3-nitro-phenyl)-isoxazole-3-carboxylic acid (3-imidazol-1-yl-propyl)-amide], the Emax at 120 µM in assay [1] and in assay [2] was 46% throughout.

For the molecule `O=C(NCCn1nccn1)c1cc(-c2ccc(F)cc2)on1` [Derivative (89), 5-(4-fluoro-phenyl)-isoxazole-3-carboxylic acid (2-[1,2,3]triazol-2-yl-ethyl)-amide], the Emax at 30 µM in assay [1] and in assay [2] was 132% throughout.

In the case of `O=C(NCCCn1ccnc1)c1cc(-c2cccc(F)c2)on1` [Derivative (82), 5-(3-fluoro-phenyl)-isoxazole-3-carboxylic acid (3-imidazol-1-yl-propyl)-amide], the Emax at 120 µM in assay [1] and in assay [2] was 67% each time.

Regarding `O=C(NCCc1ccc(F)cc1)c1cc(-c2ccco2)on1` [Derivative (18), 5-furan-2-yl-isoxazole-3-carboxylic acid [2-(4-fluoro-phenyl)-ethyl]-amide], the Emax at 30 µM in assay [1] is below 20%. Moreover, the Emax at 15 µM in assay [2] (Con. 15 μM) is 149%.
